Drawing on DBAASP, this text covers MIC for five compounds.

The structures appear in SMILES notation. ≈ marks a conversion by molar mass, not a printed value.

Some test systems named below: Escherichia coli BL21; Staphylococcus aureus MR; Candida albicans.
Assay in all cases: ≥ marks a high value that may be exact or a test limit, other limits are often not marked, values filed in µg/mL are converted to µM
The subject of test [1] is Pseudomonas aeruginosa PAO1.
Test [2] relates to Streptococcus pyogenes M1T1 5448.
Test [3] deals with Pseudomonas aeruginosa Ps4.
In test [4] the test system is Enterococcus faecium ATCC 700221.
In test [5] the test system is Acinetobacter baumannii ATCC BAA-747.
Test [6] has as its system Salmonella enterica ATCC 6539.
Test [7] concerns Escherichia coli ATCC 25922.
Test [8] deals with Klebsiella pneumoniae ATCC 700603.
The test system of test [9] is Pseudomonas aeruginosa ATCC 27853.
In test [10] the test system is Staphylococcus aureus ATCC 43300.
Test [11] deals with Escherichia coli CVCC 1515.
The test system of test [12] is Listeria ivanovii ATCC 19119.
Test [13] deals with Streptococcus suis CVCC 606.
Test [14] relates to Enterococcus faecalis CVCC 3936.
The subject of test [15] is Salmonella enterica subsp. enterica serovar Typhimurium ATCC 14028.
Test [16] relates to Escherichia coli CVCC 195.
Test [17] has as its system Bacillus subtilis ATCC 6633.
Test [18] deals with Salmonella enterica subsp. enterica serovar Pullorum CVCC 1809.
Test [19] has as its system Candida albicans CGMCC 2.2411.
Test [20] concerns Pseudomonas aeruginosa CICC 10419.
Test [21] has as its system Salmonella enterica subsp. enterica serovar Pullorum CVCC 533.
For test [22], the system named is Staphylococcus aureus ATCC 49476.

Consider `CC[C@H](C)[C@H](NC(=O)[C@H](Cc1c[nH]c2ccccc12)NC(=O)[C@H](C)NC(=O)[C@H](CCCN=C(N)N)NC(=O)[C@H](CCCCN)NC(=O)CNC(=O)[C@H](CCCCN)NC(=O)[C@H](CCC(=O)O)NC(=O)[C@H](CCC(N)=O)NC(=O)[C@@H](NC(=O)[C@H](CCCCN)NC(=O)[C@H](CCCCN)NC(=O)[C@H](CCCCN)NC(=O)[C@H](CC(C)C)NC(=O)[C@H](CCCN=C(N)N)NC(=O)[C@H](CCC(N)=O)NC(=O)[C@H](Cc1ccccc1)NC(=O)[C@@H](NC(=O)[C@@H](NC(=O)[C@H](CCC(=O)O)NC(=O)[C@H](CCCCN)NC(=O)CNC(=O)[C@H](C)N)[C@@H](C)O)[C@@H](C)CC)[C@@H](C)CC)C(=O)N[C@@H](C)C(=O)N[C@@H](Cc1c[nH]c2ccccc12)C(=O)O` [AGKETIFQRLKKKIQEKGKRAWIAW], for which the MIC in [1] turned out to be 32 µM (≈ 96.5 µg/mL); in [2], 0.125 µM (≈ 0.377 µg/mL); in the test on Escherichia coli BL21 it was 0.0156 µM (≈ 0.047 µg/mL).

In [3], `CC[C@H](C)[C@H](NC(=O)[C@H](CC(N)=O)NC(=O)[C@H](CCCN=C(N)N)NC(=O)[C@H](CCC(N)=O)NC(=O)[C@H](Cc1c[nH]c2ccccc12)NC(=O)[C@@H](N)Cc1ccccc1)C(=O)N[C@@H](CCCN=C(N)N)C(=O)N[C@@H](CCCCN)C(=O)N[C@H](C(=O)N[C@@H](CCCN=C(N)N)C(N)=O)C(C)C` [FWQRNIRKVR] registered an MIC of at least 178 µM.

In the case of `NCCCC[C@H](NC(=O)CNC(=O)CNC(=O)[C@H](CCCN=C(N)N)NC(=O)[C@H](CS)NC(=O)[C@H](Cc1ccc(O)cc1)NC(=O)[C@H](Cc1c[nH]c2ccccc12)NC(=O)[C@H](CCCN=C(N)N)NC(=O)[C@H](Cc1c[nH]c2ccccc12)NC(=O)[C@H](Cc1cnc[nH]1)NC(=O)CNC(=O)CN)C(N)=O` [GGHWRWYCRGGK], the minimum inhibitory concentration (MIC) in test [4] came out at 3 µM (≈ 4.39 µg/mL); in test [5], 11 µM (≈ 16.1 µg/mL); in test [6], 1 µM (≈ 1.46 µg/mL); in [7], 3 µM (≈ 4.39 µg/mL); in test [8], 11 µM (≈ 16.1 µg/mL); in test [9], 11 µM (≈ 16.1 µg/mL). Further, the MIC in test [10] amounted to 11 µM (≈ 16.1 µg/mL).

`CC(C)[C@H](NC(=O)[C@H](CCCCN)NC(=O)[C@H](Cc1c[nH]c2ccccc12)NC(=O)[C@H](CCCN=C(N)N)NC(=O)CNC(=O)[C@H](CCC(N)=O)NC(=O)[C@@H](NC(=O)[C@@H](N)CCCN=C(N)N)C(C)C)C(=O)N[C@@H](CCCN=C(N)N)C(=O)N[C@@H](C)C(=O)N[C@@H](CO)C(=O)N[C@@H](Cc1ccccc1)C(=O)N[C@@H](Cc1ccccc1)C(=O)N[C@@H](CCCCN)C(=O)O` [RVQGRWKVRASFFK]: the minimal inhibitory concentration (MIC) in test [11] was 4.53 µM (≈ 8 µg/mL); in test [12] it was 4.53 µM (≈ 8 µg/mL); in [13], at least 36.3 µM; in test [14], 18.1 µM (≈ 32 µg/mL); in test [15], 9.06 µM (≈ 16 µg/mL); in test [16] it was 4.53 µM (≈ 8 µg/mL). The minimum inhibitory concentration (MIC) in [17] was 18.1 µM (≈ 32 µg/mL); in [18], 9.06 µM (≈ 16 µg/mL); in [19] it was at least 36.3 µM; in [20], at least 36.3 µM; in [21], 18.1 µM (≈ 32 µg/mL); in test [10], 36.3 µM (≈ 64 µg/mL).

With `CC[C@H](C)[C@H](NC(=O)[C@H](CO)NC(=O)[C@H](Cc1ccccc1)NC(=O)[C@H](CC(C)C)NC(=O)CNC(=O)CNC(=O)[C@@H](NC(=O)[C@@H](NC(=O)[C@H](Cc1cnc[nH]1)NC(=O)[C@H](Cc1cnc[nH]1)NC(=O)[C@@H](NC(=O)[C@@H](N)Cc1ccccc1)[C@@H](C)CC)[C@@H](C)CC)[C@@H](C)CC)C(=O)NCC(=O)N[C@@H](CCCCN)C(=O)N[C@H](C(=O)N[C@H](C(=O)N[C@@H](Cc1cnc[nH]1)C(=O)N[C@@H](CCCN=C(N)N)C(=O)N[C@@H](CC(C)C)C(=O)N[C@H](C(=O)N[C@@H](CCCN=C(N)N)C(=O)N[C@@H](CCCN=C(N)N)C(=O)N[C@@H](CCCN=C(N)N)C(=O)N[C@@H](CCCN=C(N)N)C(=O)N[C@@H](CCCN=C(N)N)C(=O)O)[C@@H](C)CC)[C@@H](C)CC)[C@@H](C)CC` [FIHHIIGGLFSIGKIIHRLIRRRRR], the minimal inhibitory concentration (MIC) is 20.9 µM (≈ 64 µg/mL) in the test on Staphylococcus aureus MR, 41.8 µM (≈ 128 µg/mL) against Candida albicans, 5.22 µM (≈ 16 µg/mL) in test [22] and 167 µM (≈ 512 µg/mL) in test [9].
